Experimental data from publication PMC10906223 (JCI Insight, 2024).
“And” between values parts separate entries of the source, which are not always exact repeats. Equal values may be shown once.

Assays:
EphA4 receptor = target: T1, EphA4 receptor (Mus musculus, UniProt Q03137); assay: ELISA: competition between WCDD301 and Ephrin-A5 Fc for binding to EphA4; conditions: for Bound Ephrin (WCDD301, 0.01 µM) / Bound Ephrin (WCDD301, 0.1 µM) / Bound Ephrin (WCDD301, 1 µM): Figure 1E; for Bound Ephrin-A5 (ELISA signal) / AUC of competition curve: Figure 1D; for AUC of competition curve: EphA4 3 μg/mL, mean ± SD
T1 construct: purchased R&D Systems 641-A4-200
Description: Wells of the protein A–coated microplate (Pierce, catalog 15132) were washed using 200 μL of binding buffer (PBS supplemented by 0.01% Tween 20). Recombinant mouse EphA4 Fc chimera protein (R&D Systems, catalog 641-A4-200) was reconstituted in 1× PBS (Genesee, catalog 25-507XB, pH 7.2 ± 0.1), diluted to 3 μg/mL using binding buffer, dispensed (100 μL) in each well, and rocked on a belly dancer shaker (3 hours at room temperature, RT). Following 3 washes in the binding buffer, blocking was done using blocking buffer (5% BSA in binding buffer) for 3 hours at RT. Then, after 5 washes, the reconstituted recombinant mouse Ephrin-A5 Fc (R&D Systems, catalog 7396-EA-050) was added (100 μL) into each well and rocked for 2.5 hours on the shaker (Ephrin-A5 Fc concentrations were used as described in the Results section). After 7 washes using binding buffer, alkaline phosphatase–conjugated antibody against Ephrin-A5 was diluted (1:1,000) in the binding buffer plus 2% BSA, added to each well, and incubated at 4°C, overnight. Conjugation of the anti-EFNA5 antibody (Abnova, catalog H00001946-M02; 0.5 mg/mL; target sequence 114–203) was done using Abcam conjugation kit (catalog ab102850) based on the manufacturer’s instruction. After washing 7 times, p-nitrophenyl phosphate tablet (MilliporeSigma, catalog N1891) was reconstituted in 5 mL of PBS and added to each well (100 μL). Following 1 hour shaking at RT in the dark, reaction was stopped by adding 100 μL of 3N NaOH. OD was read at 405 nm within 5 minutes using the microplate reader (Agilent BioTek Cytation 5).
We took following the approaches to assay competition between Ephrin-A5 and WCDD301 for binding to the EphA4 receptor. Wells of the microplate were coated by a fixed level of EphA4 Fc (3.5 pmol/well), and competition experiments with Ephrin-A5 and WCDD301 were performed as listed in Supplemental Tables 3 and 4. We determined the KD value for each condition by means of Michaelis-Menten best fit analysis in GraphPad Prism software version 4. To control for potential interaction between WCDD301 and Ephrin-A5 Fc, we coated wells of a microplate using Ephrin-A5 Fc and then incubated them with or without WCDD301 (0.2 μM).

[1] = system: human dispersed islet cells; assay: Immunofluorescence: EphA4 intensity in glucagon+ human dispersed islet cells; assay type: cell-based;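 for EphA4 intensity: ImageJ intensity within ROI drawn around each glucagon+ cell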
Description: Coverslips were treated with WCDD301, preclustered Ephrin-A5 Fc, or preclustered Fc in the following sequential order: KRBH (11 mM glucose, 30 minutes), KRBH (1 mM glucose, 60 minutes), KRBH (1 mM glucose, 30 minutes), and KRBH (11 mM glucose, 60 minutes). After treatment, coverslips were washed once in PBS, fixed in 2% paraformaldehyde in PBS (30 minutes), and again washed in PBS. […] Following wash in PBS, coverslips were incubated in a mixture of Alexa Fluor 555 Phalloidin (Cell Signaling Technology, catalog 8953) and secondary antibodies (goat anti-rabbit Alexa Fluor 488, catalog A-21094, 1:1,000, Molecular Probes; and goat anti-mouse Alexa Fluor 633, catalog A21052, 1:1,000, Life Technologies) for 1 hour at RT. Both primary and secondary antibodies were diluted in blocking buffer containing 0.05% Tween 20. Coverslips were washed using PBS and counterstained by using DAPI (1:1,000) for 10 minutes. Following 2 washes in PBS, coverslips were mounted on glass slides using ProLong Glass Antifade Mountant (Invitrogen, catalog P36980). Images were captured using the Zeiss LSM880 microscope with a Plan-Apochromat 63× 1.4 NA objective lens by setting dual-band dichroic/filter for 405, 488, 561, and 633 nm laser excitation. For each slide, 25–30 fields of view were scanned, and in each field of view, 3–5 cells were imaged. […] Values of intensity were compared among groups using 1-way ANOVA, α = 0.05.

diabetic NOD mice [2] = assay: Plasma somatostatin in NOD mice; assay type: in vivo, mouse; parameters: unit not given beside the values; conditions: WCDD301 group of NOD mice; quantity not given
Description: Terminal blood was collected into microfuge tubes containing K2-EDTA (supplemented by 45 mM phenylmethylsulphonyl fluoride and 0.77 μM aprotinin) through cardiac puncture. Plasma was separated by centrifugation (2,000g for 10 minutes at 4°C) and kept at –80°C until analysis. Plasma samples with hemolysis were excluded from the study. […] Values of BUN, creatinine, ALB, ALT, and AST were determined by a Roche Cobas C501 Autoanalyzer as performed by the Washington University Diabetes Research Center Translational Diagnostics Core. Reference intervals of blood chemistry parameters for inbred NOD mice were extracted from the Mouse Phenome Database (https://phenome.jax.org/).

diabetic NOD mice [3] = assay: Daily urine glucose in NOD mice; assay type: in vivo, mouse
Description: We preweighed WCDD301 into microfuge tubes and reconstituted it using deionized water. Using a 10 μL pipette tip, we placed the calculated dose of WCDD301 (at the volume range of 1–1.5 μL) within the center of pearls. WCDD301 was placed into pearls 30–45 minutes before administration. For oral administration of pearls, we designed an applicator using a disposable plastic transfer pipette and syringe plunger lubricated with olive oil. Food intake and body weight in each experimental group (diabetic WCDD301-treated, diabetic placebo-treated, and nondiabetic placebo-treated NOD mice) were monitored daily for 4 weeks. Urine glucose was measured from individually caged NOD mice (nondiabetic placebo treated n = 2, diabetic placebo treated n = 2, and diabetic WCDD301 treated n = 4, 21–23 weeks old) with metabolic cages. Urine glucose was monitored every 24 hours for 10 days by semiquantitative measurements (P-STICKS, Millpledge Veterinary).

T1 sequence (Q03137 with tags, fused parts or gaps limits assumed): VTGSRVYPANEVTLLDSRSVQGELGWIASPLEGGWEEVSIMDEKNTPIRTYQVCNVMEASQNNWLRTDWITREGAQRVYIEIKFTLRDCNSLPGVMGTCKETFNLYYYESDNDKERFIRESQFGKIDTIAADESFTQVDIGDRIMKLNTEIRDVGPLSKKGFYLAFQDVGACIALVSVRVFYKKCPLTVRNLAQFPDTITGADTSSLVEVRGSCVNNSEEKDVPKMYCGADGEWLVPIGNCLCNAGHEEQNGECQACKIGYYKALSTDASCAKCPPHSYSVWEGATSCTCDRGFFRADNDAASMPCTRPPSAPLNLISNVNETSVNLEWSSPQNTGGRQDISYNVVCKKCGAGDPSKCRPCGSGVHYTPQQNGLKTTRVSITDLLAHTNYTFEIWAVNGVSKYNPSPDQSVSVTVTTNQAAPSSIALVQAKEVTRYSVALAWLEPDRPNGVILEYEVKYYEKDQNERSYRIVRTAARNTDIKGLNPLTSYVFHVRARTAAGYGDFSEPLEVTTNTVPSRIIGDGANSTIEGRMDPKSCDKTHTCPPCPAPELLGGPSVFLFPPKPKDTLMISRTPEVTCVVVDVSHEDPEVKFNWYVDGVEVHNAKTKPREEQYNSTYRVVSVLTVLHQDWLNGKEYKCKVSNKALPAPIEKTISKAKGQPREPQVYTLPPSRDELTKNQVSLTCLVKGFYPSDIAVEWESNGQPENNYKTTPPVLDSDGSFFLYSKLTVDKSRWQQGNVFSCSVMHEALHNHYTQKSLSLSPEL

## CC(=O)OCC(N)(COC(C)=O)COC(C)=O [WCDD301, 2-(acetoxymethyl)-2-aminopropane-1,3-diyl diacetate]
EphA4 receptor; AUC analysis
  Competition with Ephrin-A5 for EphA4: competes with the natural ligand, Ephrin-A5
EphA4 receptor; Ephrin-A5 Fc 2 nM
  Bound Ephrin (WCDD301, 0.01 µM): 0.051 and 0.05 and 0.052
  Bound Ephrin (WCDD301, 0.1 µM): 0.05 and 0.06
  Bound Ephrin (WCDD301, 1 µM): 0.03 and 0.04
EphA4 receptor; Ephrin-A5 Fc 4 nM
  Bound Ephrin (WCDD301, 0.01 µM): 0.061 and 0.07 and 0.064
  Bound Ephrin (WCDD301, 0.1 µM): 0.062 and 0.064 and 0.07
  Bound Ephrin (WCDD301, 1 µM): 0.04 and 0.05
EphA4 receptor; Ephrin-A5 Fc 8 nM
  Bound Ephrin (WCDD301, 0.01 µM): 0.142 and 0.122 and 0.156
  Bound Ephrin (WCDD301, 0.1 µM): 0.119 and 0.121 and 0.098
  Bound Ephrin (WCDD301, 1 µM): 0.1 and 0.104 and 0.11
EphA4 receptor; Ephrin-A5 Fc 16 nM
  Bound Ephrin (WCDD301, 0.01 µM): 0.18 and 0.189 and 0.209
  Bound Ephrin (WCDD301, 0.1 µM): 0.141 and 0.137 and 0.119
  Bound Ephrin (WCDD301, 1 µM): 0.145 and 0.115 and 0.125
EphA4 receptor; Ephrin-A5 Fc 32 nM
  Bound Ephrin (WCDD301, 0.01 µM): 0.265 and 0.289 and 0.221
  Bound Ephrin (WCDD301, 0.1 µM): 0.21 and 0.269 and 0.243
  Bound Ephrin (WCDD301, 1 µM): 0.234 and 0.189 and 0.171
EphA4 receptor; Ephrin-A5 Fc 64 nM
  Bound Ephrin (WCDD301, 0.01 µM): 0.321 and 0.34 and 0.365
  Bound Ephrin (WCDD301, 0.1 µM): 0.301 and 0.29 and 0.27
  Bound Ephrin (WCDD301, 1 µM): 0.28 and 0.27 and 0.26
EphA4 receptor; WCDD301 0.0625 µM, Ephrin-A5 (2 nM)
  Bound Ephrin-A5 (ELISA signal): 0.1 and 0.12
EphA4 receptor; WCDD301 0.0625 µM, Ephrin-A5 (4 nM), c4-c6
  Bound Ephrin-A5 (ELISA signal): 0.217 and 0.196 and 0.19
EphA4 receptor; WCDD301 0.0625 µM, Ephrin-A5 (4 nM), third group c7-c9
  Bound Ephrin-A5 (ELISA signal): 0.23 and 0.236 and 0.246
EphA4 receptor; WCDD301 0.0625 µM, Ephrin-A5 (8 nM)
  Bound Ephrin-A5 (ELISA signal): 0.237 and 0.247 and 0.265
EphA4 receptor; WCDD301 0.125 µM, Ephrin-A5 (2 nM)
  Bound Ephrin-A5 (ELISA signal): 0.086 and 0.108 and 0.1
EphA4 receptor; WCDD301 0.125 µM, Ephrin-A5 (4 nM), c4-c6
  Bound Ephrin-A5 (ELISA signal): 0.202 and 0.18 and 0.187
EphA4 receptor; WCDD301 0.125 µM, Ephrin-A5 (4 nM), third group c7-c9
  Bound Ephrin-A5 (ELISA signal): 0.208 and 0.216
EphA4 receptor; WCDD301 0.125 µM, Ephrin-A5 (8 nM)
  Bound Ephrin-A5 (ELISA signal): 0.236 and 0.233 and 0.234
EphA4 receptor; WCDD301 0.25 µM, Ephrin-A5 (2 nM)
  Bound Ephrin-A5 (ELISA signal): 0.072 and 0.073 and 0.082
EphA4 receptor; WCDD301 0.25 µM, Ephrin-A5 (4 nM), c4-c6
  Bound Ephrin-A5 (ELISA signal): 0.148 and 0.141 and 0.169
EphA4 receptor; WCDD301 0.25 µM, Ephrin-A5 (4 nM), third group c7-c9
  Bound Ephrin-A5 (ELISA signal): 0.201 and 0.205 and 0.203
EphA4 receptor; WCDD301 0.25 µM, Ephrin-A5 (8 nM)
  Bound Ephrin-A5 (ELISA signal): 0.222 and 0.22 and 0.212
EphA4 receptor; at 2 nM
  AUC of competition curve: 0.025 ± 0.0011 AU
EphA4 receptor; at 4 nM
  AUC of competition curve: 0.0469 ± 0.0014 AU
EphA4 receptor; at 6 nM
  AUC of competition curve: 0.0554 ± 0.0006 AU
EphA4 receptor; at 8 nM
  AUC of competition curve: 0.0617 ± 0.0011 AU
[1]; human cells, individual values, Figure 3G
  EphA4 intensity: 58.8 and 45.8 and 8.0 and 57.8 and 32.5 and 5.4 and 45.9 and 14.9 and 11.0
[1]; α cells, human donors
  Effect on intracellular EphA4: increased intracellular EphA4 intensity
Diabetic NOD mice [2]
  Plasma somatostatin (Figure 7C): 310.49 and 318.85 and 327.2 and 342.5
Diabetic NOD mice [3]; Diabetic, WCDD301 treated, Day 10
  Daily urine glucose (Figure 7D): 0
Diabetic NOD mice [3]; diabetic WCDD301-treated mice
  Urine glucose, daily monitoring: phenotypes similar to nondiabetic placebo-treated mice
